Target: T1, oxidosqualene cyclase (Rattus norvegicus, UniProt P48450)
T1 construct: Oxidosqualene cyclase is purified from rat liver microsomes; from tissue; host or cells: rat liver microsomes (lauryl maltoside solubilization, FPLC anion-exchange chromatography)
T1 sequence (P48450 1-733): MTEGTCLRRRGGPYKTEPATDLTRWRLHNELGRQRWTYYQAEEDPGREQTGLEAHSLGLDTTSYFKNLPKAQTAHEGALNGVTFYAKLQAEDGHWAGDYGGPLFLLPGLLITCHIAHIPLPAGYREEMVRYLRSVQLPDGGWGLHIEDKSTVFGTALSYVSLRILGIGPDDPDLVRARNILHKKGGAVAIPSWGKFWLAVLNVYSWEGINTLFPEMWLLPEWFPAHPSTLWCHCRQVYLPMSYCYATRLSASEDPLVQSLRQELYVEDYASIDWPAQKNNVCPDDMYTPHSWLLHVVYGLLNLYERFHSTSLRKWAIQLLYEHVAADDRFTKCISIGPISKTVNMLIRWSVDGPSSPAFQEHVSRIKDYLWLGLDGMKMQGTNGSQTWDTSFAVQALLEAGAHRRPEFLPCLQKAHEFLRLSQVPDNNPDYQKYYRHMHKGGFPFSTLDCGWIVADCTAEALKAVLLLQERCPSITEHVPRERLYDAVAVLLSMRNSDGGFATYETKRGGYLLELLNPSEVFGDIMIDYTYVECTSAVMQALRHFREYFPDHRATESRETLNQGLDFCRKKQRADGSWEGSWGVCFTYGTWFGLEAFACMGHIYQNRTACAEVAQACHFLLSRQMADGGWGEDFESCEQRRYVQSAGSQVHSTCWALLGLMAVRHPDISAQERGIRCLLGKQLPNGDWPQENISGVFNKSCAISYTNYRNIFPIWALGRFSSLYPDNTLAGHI
Assay: Inhibition of Purified Oxidosqualene Cyclase (I10)
Format: biochemical
Conditions: 10 μM test compound; oxidosqualene cyclase purified from rat liver microsomes; [3H]squalene monoepoxide 10 μM; pH 7.4
Method: Inhibition of Purified Oxidosqualene Cycloase (I10)
Oxidosqualene cyclase is purified from rat liver microsomes by the sequential methods of: 1) solubilization with the detergent lauryl maltoside and 2) FPLC anion-exchange chromatography. Compounds are tested to determine their ability to inhibit the conversion of squalene monoepoxide to lanosterol catalyzed by the purified oxidosqualene cyclase. The reaction mixture (final volume, 200 μL), contains potassium phosphate buffer (50 mM, pH 7.4), Na2 EDTA (500 μM), Tween (80 (0.1%), [3H]squalene monoepoxide (10 μM of the racemic mixture, 50 Ci/mol), test compound (10 μM) and purified oxidosqualene cyclase (50 μg). The reagents, prior to mixing are equilibrated at 37° C. for 10 minutes. The reaction is initiated by adding enzyme. The reaction is terminated by the addition of 5 mL of CHCl3 /MeOH (2:1, v/v), 0.8 mL of water and 10 μg each of squalene monoepoxide, squalene diepoxide, lanosterol and cholesterol. The organic layer is isolated and evaporated to dryness under nitrogen. The residue is dissolved in 200 μL of hexane/ethanol (99:1) and the sample is subjected to HPLC separation using a C18 reverse phase column eluted isocratically with 3.6% water in methanol. Radioactivity is quantitated using an in-line scintillation counter. Oxidosqualene cyclase activity is expressed as the percent inhibition of oxidosqualene cyclase activity at 10 μM test compound (I10 values).
Table 1 provides a summary of the testing data for the inhibition of oxidosqualene cyclase by compounds of formula (I) and formula (II).

Structure (SMILES) | inhibition at 10 µM
CC(C)CCSCCCCC(=O)N1CCC(C(C)CO)CC1 (centres unmarked) [100,759, 1-(1-Oxopentyl-5-isopentylsulfide)-4-[(2-hydroxy-1-methyl)ethyl]piperidine] | 76%
CC(C)CCSCCCCC(=O)N1CCCCC1 [101,140, 1-(1-Oxopentyl-5-isopentylsulfide)piperidine] | 38%
CC(CO)C1CCN(C(=O)CCCCSc2ccccc2)CC1 (centres unmarked) [101,550, 1-(1-Oxopentyl-5-phenylsulfide)-4-[(2-hydroxy-1-methyl)ethyl]piperidine] | 82%
CCCCCCCCCCCC[S+]([O-])N1CCC(C(C)CO)CC1 (centres unmarked) [101,915, 1-(1-Sulfoxododecyl)-4-[(2-hydroxy-1-methyl)ethyl]piperidine] | 46%
CCCCCCCCCCCCS(=O)(=O)N1CCC(C(C)CO)CC1 (centres unmarked) [102,055, 1-(1-Sulfonododecyl)-4[(2-hydroxy-1-methyl)ethyl]piperidine] | 29%

Source: patent publication US5489600A, “Piperidyl amides, sulfonamides and sulfoxamides as inhibitors of cholesterol biosynthesis” (priority 1994, dated 1996)
